# Experimental data published in ChEMBL document CHEMBL1153484, “Design, synthesis and evaluation of N-[(3S)-pyrrolidin-3-yl]benzamides as selective noradrenaline reuptake inhibitors: CNS penetration in a more polar template” (Bioorg Med Chem Lett, 2009).
# Experiments:
# [1] = target: Sodium-dependent dopamine transporter (Homo sapiens, UniProt Q01959); test: Displacement of radioligand from human recombinant DAT expressed in HEK293 cells by scintillation proximity assay; format: cell-based
# [2] = target: Sodium-dependent serotonin transporter (Homo sapiens, UniProt P31645); test: Displacement of [3H]citalopram from human recombinant SERT expressed in HEK293 cells by scintillation proximity assay; format: cell-based
# [3] = target: Sodium-dependent noradrenaline transporter (Homo sapiens, UniProt P23975); test: Displacement of [3H]nisoxetine from human recombinant NET expressed in HEK293 cells by scintillation proximity assay; format: cell-based
# [4] = target: Voltage-gated inwardly rectifying potassium channel KCNH2 (Homo sapiens, UniProt Q12809); test: Displacement of [3H]dofetilide from human ERG
# [5] = Intrinsic clearance in human liver microsomes; format: ADME, Microsome
# Cytochrome P450 2D6 = Cytochrome P450 2D6 (Homo sapiens, UniProt P10635); test: Inhibition of CYP2D6; format: ADME
# Chain of Cytochrome P450 2D6 (P10635 whole entry): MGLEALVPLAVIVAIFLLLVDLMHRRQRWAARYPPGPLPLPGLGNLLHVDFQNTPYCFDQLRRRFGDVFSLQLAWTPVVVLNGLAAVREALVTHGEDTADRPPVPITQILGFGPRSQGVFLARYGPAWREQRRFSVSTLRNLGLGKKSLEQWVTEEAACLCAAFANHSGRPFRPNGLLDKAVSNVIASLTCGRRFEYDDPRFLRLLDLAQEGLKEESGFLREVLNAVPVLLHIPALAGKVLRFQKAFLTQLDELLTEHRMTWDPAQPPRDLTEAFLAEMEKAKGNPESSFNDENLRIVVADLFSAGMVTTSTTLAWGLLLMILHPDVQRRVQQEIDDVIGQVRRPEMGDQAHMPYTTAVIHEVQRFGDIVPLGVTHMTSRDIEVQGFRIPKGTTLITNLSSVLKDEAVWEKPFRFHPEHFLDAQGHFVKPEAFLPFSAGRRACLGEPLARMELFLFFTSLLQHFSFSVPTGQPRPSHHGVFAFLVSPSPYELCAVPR
# Chain of Sodium-dependent dopamine transporter (Q01959 whole entry): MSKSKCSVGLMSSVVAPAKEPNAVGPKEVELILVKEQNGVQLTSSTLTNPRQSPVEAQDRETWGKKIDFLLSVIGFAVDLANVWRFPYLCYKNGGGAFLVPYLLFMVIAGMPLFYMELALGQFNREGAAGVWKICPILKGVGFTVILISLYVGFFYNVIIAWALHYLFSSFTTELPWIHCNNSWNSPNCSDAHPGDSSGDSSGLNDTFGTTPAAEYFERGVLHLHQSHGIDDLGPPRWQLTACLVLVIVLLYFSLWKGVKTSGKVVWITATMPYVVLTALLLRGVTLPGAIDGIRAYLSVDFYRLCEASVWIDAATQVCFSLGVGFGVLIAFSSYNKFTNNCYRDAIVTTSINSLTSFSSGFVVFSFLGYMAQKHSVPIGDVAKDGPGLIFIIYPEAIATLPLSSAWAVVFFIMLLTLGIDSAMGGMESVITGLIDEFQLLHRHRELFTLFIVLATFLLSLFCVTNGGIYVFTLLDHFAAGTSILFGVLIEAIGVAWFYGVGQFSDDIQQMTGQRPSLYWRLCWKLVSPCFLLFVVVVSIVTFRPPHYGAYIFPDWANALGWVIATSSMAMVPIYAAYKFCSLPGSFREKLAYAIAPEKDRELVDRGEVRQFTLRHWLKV
# Chain of Voltage-gated inwardly rectifying potassium channel KCNH2 (Q12809 whole entry): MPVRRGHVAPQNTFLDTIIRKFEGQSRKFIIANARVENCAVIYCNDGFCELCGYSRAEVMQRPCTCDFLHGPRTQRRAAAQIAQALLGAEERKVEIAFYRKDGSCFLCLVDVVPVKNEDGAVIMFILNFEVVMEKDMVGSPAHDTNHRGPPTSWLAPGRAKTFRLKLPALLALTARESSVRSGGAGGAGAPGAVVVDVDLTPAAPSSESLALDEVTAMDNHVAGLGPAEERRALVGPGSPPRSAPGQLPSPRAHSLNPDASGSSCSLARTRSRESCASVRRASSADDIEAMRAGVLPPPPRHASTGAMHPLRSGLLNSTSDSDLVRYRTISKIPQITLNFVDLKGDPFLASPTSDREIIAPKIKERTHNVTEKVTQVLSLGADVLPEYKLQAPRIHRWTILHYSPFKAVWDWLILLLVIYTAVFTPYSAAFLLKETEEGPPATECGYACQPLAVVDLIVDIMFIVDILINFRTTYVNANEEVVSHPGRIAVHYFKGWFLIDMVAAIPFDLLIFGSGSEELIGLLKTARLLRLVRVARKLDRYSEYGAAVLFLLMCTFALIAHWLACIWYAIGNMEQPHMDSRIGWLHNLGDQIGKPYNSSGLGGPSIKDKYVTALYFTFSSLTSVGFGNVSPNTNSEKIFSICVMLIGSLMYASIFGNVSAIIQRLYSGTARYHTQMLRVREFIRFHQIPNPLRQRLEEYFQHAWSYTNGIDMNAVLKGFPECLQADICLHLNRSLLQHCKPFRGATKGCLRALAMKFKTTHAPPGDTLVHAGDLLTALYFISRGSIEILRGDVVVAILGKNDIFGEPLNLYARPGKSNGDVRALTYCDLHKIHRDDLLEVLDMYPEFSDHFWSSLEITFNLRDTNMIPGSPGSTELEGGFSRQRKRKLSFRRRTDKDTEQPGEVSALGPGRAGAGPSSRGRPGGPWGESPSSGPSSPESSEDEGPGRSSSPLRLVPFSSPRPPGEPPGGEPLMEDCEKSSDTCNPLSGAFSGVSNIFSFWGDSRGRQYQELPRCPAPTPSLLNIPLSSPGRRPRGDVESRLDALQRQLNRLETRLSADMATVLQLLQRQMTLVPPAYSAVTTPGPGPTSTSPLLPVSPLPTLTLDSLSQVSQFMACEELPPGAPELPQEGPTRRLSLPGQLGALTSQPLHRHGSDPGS
# Chain of Sodium-dependent serotonin transporter (P31645 whole entry): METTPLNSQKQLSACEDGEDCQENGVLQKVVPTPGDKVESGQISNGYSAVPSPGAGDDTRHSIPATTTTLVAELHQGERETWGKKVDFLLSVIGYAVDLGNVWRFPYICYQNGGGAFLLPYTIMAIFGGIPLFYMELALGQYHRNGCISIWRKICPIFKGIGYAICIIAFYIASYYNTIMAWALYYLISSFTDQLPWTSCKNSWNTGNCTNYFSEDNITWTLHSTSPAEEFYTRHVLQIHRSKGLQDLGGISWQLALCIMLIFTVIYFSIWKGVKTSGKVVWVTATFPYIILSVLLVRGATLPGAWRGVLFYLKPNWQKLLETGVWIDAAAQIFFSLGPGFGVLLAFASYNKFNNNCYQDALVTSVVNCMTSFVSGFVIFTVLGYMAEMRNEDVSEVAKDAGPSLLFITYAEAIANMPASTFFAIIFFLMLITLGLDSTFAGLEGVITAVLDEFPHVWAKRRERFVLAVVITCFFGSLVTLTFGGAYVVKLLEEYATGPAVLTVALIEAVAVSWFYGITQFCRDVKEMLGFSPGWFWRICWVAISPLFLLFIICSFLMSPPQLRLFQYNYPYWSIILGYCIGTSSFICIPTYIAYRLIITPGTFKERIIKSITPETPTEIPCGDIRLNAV
# Chain of Sodium-dependent noradrenaline transporter (P23975 whole entry): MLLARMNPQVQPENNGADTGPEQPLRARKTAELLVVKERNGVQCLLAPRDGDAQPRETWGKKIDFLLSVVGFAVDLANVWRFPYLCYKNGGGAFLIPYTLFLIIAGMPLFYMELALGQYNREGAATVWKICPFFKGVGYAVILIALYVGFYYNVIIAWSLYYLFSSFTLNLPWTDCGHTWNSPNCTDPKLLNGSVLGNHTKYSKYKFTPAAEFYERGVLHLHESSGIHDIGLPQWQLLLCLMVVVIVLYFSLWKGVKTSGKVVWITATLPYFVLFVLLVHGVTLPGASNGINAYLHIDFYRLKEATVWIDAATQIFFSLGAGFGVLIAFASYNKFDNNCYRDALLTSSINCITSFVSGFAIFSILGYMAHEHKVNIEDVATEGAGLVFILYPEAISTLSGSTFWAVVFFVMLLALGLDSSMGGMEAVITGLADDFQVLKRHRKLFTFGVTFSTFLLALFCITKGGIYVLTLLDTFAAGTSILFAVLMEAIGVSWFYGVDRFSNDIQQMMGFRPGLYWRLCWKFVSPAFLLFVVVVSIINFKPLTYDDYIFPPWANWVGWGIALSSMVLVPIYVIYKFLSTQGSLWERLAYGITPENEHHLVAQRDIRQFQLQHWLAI
compound,measurement,setting,value
O=C(c1ccccc1Oc1ccccc1)N(CC1CCC1)[C@H]1CCNC1,Ki,[1],> 10000 nM
same,Ki,[2],151 nM
same,Ki,[3],7 nM
same,IC50,[4],760 nM
same,microsomal CLint,[5],< 7 µL/min/mg
same,IC50,Cytochrome P450 2D6,65 nM
CC(C)c1ccccc1C(=O)N(CC1CCC1)[C@@H]1CCNC1,Ki,[1],> 3160 nM
same,Ki,[2],1990 nM
same,Ki,[3],825 nM
CCOc1ccccc1C(=O)N(CC1CCC1)[C@H]1CCNC1,Ki,[1],2650 nM
same,Ki,[2],348 nM
same,Ki,[3],22 nM
same,IC50,[4],> 16800 nM
same,microsomal CLint,[5],< 7 µL/min/mg
CCOC(=O)N(Cc1ccccc1-c1ccccc1)[C@H]1CCNC1,microsomal CLint,[5],< 7 µL/min/mg
O=C(c1ccccc1C(F)(F)F)N(CC1CCC1)[C@@H]1CCNC1,Ki,[1],3960 nM
same,Ki,[2],1650 nM
same,Ki,[3],1120 nM
CC(C)C(=O)N(Cc1ccccc1-c1ccccc1)[C@H]1CCNC1,IC50,[4],3020 nM
CSc1ccccc1C(=O)N(C1CCCC1)[C@H]1CCNC1,Ki,[1],4770 nM
same,Ki,[2],36 nM
same,Ki,[3],9 nM
same,IC50,[4],> 18700 nM
CCCN(C(=O)c1ccccc1SC)[C@H]1CCNC1,Ki,[1],3110 nM
same,Ki,[2],1090 nM
same,Ki,[3],37 nM
same,IC50,[4],> 20000 nM
CC(C)c1ccccc1C(=O)N(CC1CCC1)[C@H]1CCNC1,Ki,[1],2040 nM
same,Ki,[2],857 nM
same,Ki,[3],10 nM
same,IC50,[4],> 18200 nM
same,microsomal CLint,[5],< 9 µL/min/mg
same,IC50,Cytochrome P450 2D6,3170 nM
CN(C(=O)c1ccccc1Oc1ccccc1)[C@H]1CCNC1,Ki,[1],> 3160 nM
same,Ki,[2],661 nM
same,Ki,[3],61 nM
same,IC50,[4],9210 nM
O=C(c1ccccc1Oc1ccccc1)N(c1ccccc1)[C@H]1CCNC1,Ki,[1],4650 nM
same,Ki,[2],68 nM
same,microsomal CLint,[5],< 7 µL/min/mg
CCc1ccccc1C(=O)N(CC1CCC1)[C@H]1CCNC1,Ki,[1],2680 nM
same,Ki,[2],237 nM
same,Ki,[3],29 nM
CCSc1ccccc1C(=O)N(CC1CCC1)[C@H]1CCNC1,Ki,[1],3670 nM
same,Ki,[2],266 nM
same,Ki,[3],6 nM
same,IC50,[4],7570 nM
same,microsomal CLint,[5],8 µL/min/mg
same,IC50,Cytochrome P450 2D6,480 nM
CSc1ccccc1C(=O)N(CC1CCC1)[C@H]1CCNC1,Ki,[1],3040 nM
same,Ki,[2],179 nM
same,Ki,[3],8 nM
same,IC50,[4],> 20000 nM
same,microsomal CLint,[5],< 7 µL/min/mg
O=C(c1ccccc1C(F)(F)F)N(c1ccccc1)[C@H]1CCNC1,Ki,[1],3130 nM
same,Ki,[2],113 nM
same,Ki,[3],28 nM
same,IC50,[4],> 20000 nM
same,microsomal CLint,[5],< 7 µL/min/mg
same,IC50,Cytochrome P450 2D6,> 3000 nM
O=C(c1ccccc1C(F)(F)F)N(CC1CC1)[C@H]1CCNC1,Ki,[1],> 10000 nM
same,Ki,[2],581 nM
same,Ki,[3],30 nM
same,IC50,[4],> 20000 nM
Cc1ccccc1C(=O)N(CC1CCC1)[C@H]1CCNC1,Ki,[1],2340 nM
same,Ki,[2],118 nM
same,Ki,[3],72 nM
same,IC50,[4],> 20000 nM
CC(C)N(C(=O)c1ccccc1C(F)(F)F)[C@H]1CCNC1,Ki,[1],> 10000 nM
same,Ki,[2],457 nM
same,Ki,[3],172 nM
same,IC50,[4],> 20000 nM
CCCN(C(=O)c1ccccc1C(C)C)[C@H]1CCNC1,Ki,[1],> 10000 nM
same,Ki,[2],5210 nM
same,Ki,[3],92 nM
CSc1ccccc1C(=O)N(C1CCCCC1)[C@H]1CCNC1,Ki,[1],2950 nM
same,Ki,[2],16 nM
same,IC50,[4],2270 nM
CSc1ccccc1C(=O)N(c1ccccc1)[C@H]1CCNC1,Ki,[1],3440 nM
same,Ki,[2],64 nM
same,Ki,[3],19 nM
same,IC50,[4],> 20000 nM
O=C(c1ccccc1C(F)(F)F)N(C1CCC1)[C@H]1CCNC1,Ki,[1],> 10000 nM
same,Ki,[2],210 nM
same,Ki,[3],60 nM
same,IC50,[4],> 10000 nM
same,microsomal CLint,[5],< 7 µL/min/mg
CNCc1cnc(C)cc1Oc1ccccc1Oc1ccccc1,IC50,[4],11200 nM
same,microsomal CLint,[5],< 7 µL/min/mg
CSc1ccccc1C(=O)N(CC1CCC1)[C@@H]1CCNC1,Ki,[1],3470 nM
same,Ki,[2],1080 nM
same,Ki,[3],572 nM
CC(C)CN(C(=O)c1ccccc1-c1ccccc1)[C@H]1CCNC1,Ki,[1],> 10000 nM
same,Ki,[2],654 nM
same,Ki,[3],294 nM
same,IC50,[4],1440 nM
O=C(C1CCC1)N(Cc1ccccc1C(F)(F)F)[C@H]1CCNC1,Ki,[1],> 10000 nM
same,Ki,[2],187 nM
same,Ki,[3],148 nM
same,microsomal CLint,[5],< 7 µL/min/mg
O=C(c1ccccc1Oc1ccccc1)N(CC1CCC1)[C@@H]1CCNC1,Ki,[1],4100 nM
same,Ki,[2],587 nM
same,Ki,[3],38 nM
same,microsomal CLint,[5],< 8 µL/min/mg
CC(C)CN(C(=O)c1ccccc1Oc1ccccc1)[C@H]1CCNC1,Ki,[1],> 10000 nM
same,Ki,[2],160 nM
same,Ki,[3],8 nM
same,microsomal CLint,[5],< 7 µL/min/mg
CC(C)c1ccccc1C(=O)N(CC1CCCC1)[C@H]1CCNC1,Ki,[1],3470 nM
same,Ki,[2],330 nM
same,Ki,[3],18 nM
same,IC50,[4],2350 nM
CC(C)c1ccccc1C(=O)N(CC1CC1)[C@H]1CCNC1,Ki,[1],> 10000 nM
same,Ki,[2],2870 nM
same,Ki,[3],31 nM
same,IC50,[4],> 17600 nM
O=C(c1ccccc1Cl)N(CC1CCC1)[C@H]1CCNC1,Ki,[1],1360 nM
same,Ki,[2],39 nM
same,Ki,[3],19 nM
CC(C)c1ccccc1C(=O)N(C1CCCC1)[C@H]1CCNC1,Ki,[1],> 10000 nM
same,Ki,[2],663 nM
same,Ki,[3],32 nM
O=C(c1ccccc1Oc1ccccc1)N(C1CCC1)[C@H]1CCNC1,Ki,[1],> 10000 nM
same,Ki,[2],222 nM
same,Ki,[3],13 nM
same,microsomal CLint,[5],< 7 µL/min/mg
CCN(C(=O)c1ccccc1Oc1ccccc1)[C@H]1CCNC1,Ki,[1],3570 nM
same,Ki,[2],1610 nM
same,Ki,[3],9 nM
same,IC50,[4],5030 nM
same,microsomal CLint,[5],< 7 µL/min/mg
same,IC50,Cytochrome P450 2D6,> 30000 nM
CC(C)c1ccccc1C(=O)N(C1CCC1)[C@H]1CCNC1,Ki,[1],> 10000 nM
same,Ki,[2],776 nM
same,Ki,[3],43 nM
O=C(c1ccccc1C1CCCC1)N(CC1CCC1)[C@H]1CCNC1,Ki,[1],3720 nM
same,Ki,[2],802 nM
same,Ki,[3],18 nM
same,microsomal CLint,[5],60 µL/min/mg
O=C(c1ccccc1C(F)(F)F)N(CC1CCCC1)[C@H]1CCNC1,Ki,[1],2750 nM
same,Ki,[2],109 nM
same,Ki,[3],24 nM
same,IC50,[4],> 13500 nM
same,microsomal CLint,[5],< 7 µL/min/mg
CSc1ccccc1C(=O)N(C1CCC1)[C@H]1CCNC1,Ki,[1],> 10000 nM
same,Ki,[2],62 nM
same,Ki,[3],16 nM
same,IC50,[4],> 20000 nM
same,microsomal CLint,[5],< 7 µL/min/mg
same,IC50,Cytochrome P450 2D6,> 30000 nM
